Reference: US7868135B2, “Compositions of lipopeptide antibiotic derivatives and methods of use thereof” (priority 2003, dated 2011)
Like-named read-outs stand apart in the source and are kept apart here. Starred links: 1 amine or outer side, 2 acyl side, 3 side chain; linkers in the order of their positions; H or OH if unused. Positions of bridges follow the written chain, without caps; N, C: chain ends. Non-standard residues stand in square brackets, D forms with d. Residues, ends and D or L forms follow the SMILES beside them. ξ: configuration not given here. *: point of attachment. X30 = CC(NC(=O)Cc1ccc(N)cc1)C(N[*:1])C(=O)[*:2]; ξAbu(βξ-NH2) = CC(N[*:3])C(N[*:1])C(=O)[*:2]; X21 = CC(=O)SCC(=O)NC(C)C(N[*:1])C(=O)[*:2]; X39 = C=CC(=O)NC(C)C(N[*:1])C(=O)[*:2]; Pentadecanoyl = CCCCCCCCCCCCCCC(=O)*; ξAsp(βξ-Me) = CC(C(=O)O)C(N)C(=O)O; Myristoyl = CCCCCCCCCCCCCC(=O)*; ξAbu(3ξ-NH2) = CC(N)C(N)C(=O)O; Pip = O=C(O)[CH]1CCCCN1

Tests used:
[1] = test system: Streptococcus pneumoniae SPN0002 (PISP); assay: Broad spectrum MIC, Table 17/18 column J; assay type: cell-based; settings: condition J of Table 17, in µg/mL
Protocol: (§1) The antimicrobial lipopeptide derivatives described herein were tested for antimicrobial activity against Gram-positive bacteria as follows. The minimum inhibitory concentrations (MIC) of the antimicrobial lipopeptide derivatives of the invention were determined using NCCLS guidelines M7-A6 (2003) with a slight modification in that doubling serial dilutions were used to dilute the test compounds. The broth phase microdilution method was used. Isolated colonies of Staphylococcus aureus (MSSA) from an 18-24 hour blood agar plate cultures were used to inoculate cation adjusted Mueller-Hinton broth (CAMHB) supplemented with 0.625 mM calcium. […] A negative control containing media alone and a positive growth control containing bacteria with media alone were also included. MICs were determined after incubating the plates at about 37° C. for 24 hours. […] In Tables 1 to 16, R is the core cyclic peptide of amphomycin or aspartocin, which can be in the form of a β-isomer, an anhydro, a dianhydro, or any combination thereof. […] Furthermore, a person of skill in the art will appreciate that all the pounds, or groups of compounds, derived from the various combinations of and substituents shown in Tables 1 to 16, are disclosed by the present the same extent as if each compound or group of compounds was set forth individually.
(§2) Antimicrobial lipopeptide derivatives of the instant invention were tested for antimicrobial activity against Gram-positive bacteria in a variety of media conditions. The […] (MIC) of the antimicrobial lipopeptide derivatives were determined as described in Example 376. The various media used are described in Table 17.

[2] = test system: Staphylococcus epidermidis SEP0375 (MRSE); assay: Broad spectrum MIC, Table 17/18 column I; assay type: cell-based; settings: condition I of Table 17, in µg/mL
Protocol: as §1, §2

[3] = test system: Staphylococcus aureus SAU0017 (MSSA); assay: Broad spectrum MIC, Table 17/18 columns E, F (+ 0.625 mM calcium; + calcium and 30% bovine serum); assay type: cell-based; settings: in µg/mL; for MIC, media condition E: condition E: + 0.625 mM calcium; for MIC, media condition F: condition F: + calcium and 30% bovine serum
Protocol: as §1, §2

[4] = test system: Streptococcus pyogenes SPY0001 (PenS); assay: Broad spectrum MIC, Table 17/18 column M; assay type: cell-based; settings: condition M of Table 17, in µg/mL
Protocol: as §1, §2

[5] = test system: Staphylococcus aureus SAU0065 (MRSA); assay: Broad spectrum MIC, Table 17/18 column H; assay type: cell-based; settings: condition H of Table 17, in µg/mL
Protocol: as §1, §2

[6] = test system: Staphylococcus aureus (MSSA)
Procedure, shortened: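 Broth microdilution MIC per NCCLS M7-A6 with doubling serial dilutions, in cation-adjusted Mueller-Hinton broth supplemented with 0.625 mM calcium.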

[7] = test system: Enterococcus faecium EFM0101 (VRE, MDR); assay: Broad spectrum MIC, Table 17/18 column A; assay type: cell-based; settings: condition A of Table 17, in µg/mL
Protocol: as §1, §2

[8] = test system: Streptococcus pneumoniae SPN0032 (PSSP); assay: Broad spectrum MIC, Table 17/18 column L; assay type: cell-based; settings: condition L of Table 17, in µg/mL
Protocol: as §1, §2

[9] = test system: Staphylococcus aureus SAU0031 (VISA); assay: Broad spectrum MIC, Table 17/18 column G; assay type: cell-based; settings: condition G of Table 17, in µg/mL
Protocol: as §1, §2

[10] = test system: Streptococcus pneumoniae SPN0023 (PRSP); assay: Broad spectrum MIC, Table 17/18 column K; assay type: cell-based; settings: condition K of Table 17, in µg/mL
Protocol: as §1, §2

[11] = test system: Enterococcus faecalis EFS0004 (VSE); assay: Broad spectrum MIC, Table 17/18 B, C, D (CAMHB; + 0.625 mM calcium; + calcium and 30% bovine serum); assay type: cell-based; settings: in µg/mL; for MIC, media condition B: condition B: CAMHB; for MIC, media condition C: condition C: + 0.625 mM calcium; for MIC, media condition D: condition D: + calcium and 30% bovine serum
Protocol: as §1, §2

CCCCCCCCCCCCNC(=O)NC(CC(=O)O)C(=O)NC1C(=O)N2CCCCC2C(=O)NC(C(C)C(=O)O)C(=O)NC(CC(=O)O)C(=O)NCC(=O)NC(CC(=O)O)C(=O)NCC(=O)NC(C(C)N)C(=O)NC(C(C)C)C(=O)N2CCCC2C(=O)NC1C (stereo not drawn) [Compound 251, CH3—(CH2)11—NH—C(═O)-Amphomycin]
MIC, media condition J [1]: 0.5
MIC, media condition I [2]: 2
MIC, media condition E [3]: 2
MIC, media condition F [3]: 8
MIC, media condition M [4]: 2
MIC, media condition H [5]: 2
MIC ([6]; 24 h): 2 µg/mL
MIC, media condition A [7]: 4
MIC, media condition L [8]: 1
MIC, media condition G [9]: 4
MIC, media condition K [10]: 1
MIC, media condition B [11]: 8
MIC, media condition C [11]: 4
MIC, media condition D [11]: 32

CCCCCCCCCCCCCCC(=O)NC(CC(=O)O)C(=O)NC1C(=O)N2CCCCC2C(=O)NC(C(C)C(=O)O)C(=O)NC(CC(=O)O)C(=O)NCC(=O)NC(CC(=O)O)C(=O)NCC(=O)NC(C(C)N)C(=O)NC(C(C)C)C(=O)N2CCCC2C(=O)NC1C (stereo not drawn) [Compound 2, C15-Amphomycin]
MIC, media condition J [1]: 0.125
MIC, media condition I [2]: 4
MIC, media condition E [3]: 4
MIC, media condition F [3]: 8
MIC, media condition M [4]: 1
MIC, media condition H [5]: 4
MIC, media condition A [7]: 4
MIC, media condition L [8]: 0.5
MIC, media condition G [9]: 8
MIC, media condition K [10]: 0.125
MIC, media condition B [11]: 2
MIC, media condition C [11]: 1
MIC, media condition D [11]: 64

CCCCCCCCCCCCOc1ccc(C(=O)NC(CC(=O)O)C(=O)NC2C(=O)N3CCCCC3C(=O)NC(C(C)C(=O)O)C(=O)NC(CC(=O)O)C(=O)NCC(=O)NC(CC(=O)O)C(=O)NCC(=O)NC(C(C)NC(=O)CN)C(=O)NC(C(C)C)C(=O)N3CCCC3C(=O)NC2C)cc1 (stereo not drawn) [Compound 88, CH3—(CH2)11—O-p-Ph-C(═O)-Amphomycin-9-Gly]
MIC, media condition J [1]: 0.25
MIC, media condition I [2]: 0.5-1
MIC, media condition E [3]: 0.5-1
MIC, media condition F [3]: 32-64
MIC, media condition M [4]: 0.25-0.5
MIC, media condition H [5]: 0.5-1
MIC, media condition A [7]: 0.25-0.5
MIC, media condition L [8]: 0.25
MIC, media condition G [9]: 2-4
MIC, media condition K [10]: 0.125
MIC, media condition B [11]: 0.5-1
MIC, media condition C [11]: 0.25-0.5
MIC, media condition D [11]: >64

CCCCCCCCCCCCCCC(=O)NC(CC(=O)O)C(=O)NC1C(=O)N2CCCCC2C(=O)NC(C(C)C(=O)O)C(=O)NC(CC(=O)O)C(=O)NCC(=O)NC(CC(=O)O)C(=O)NCC(=O)NC(C(C)NC(=O)[C@@H](C)N)C(=O)NC(C(C)C)C(=O)N2CCCC2C(=O)NC1C (stereo partly drawn) [Compound 66, C15-Amphomycin-9-(D-Ala)]
MIC ([6]; 24 h): 4 µg/mL

CCCCCCCCCCCCCCC(=O)NC(CC(=O)O)C(=O)NC1C(=O)N2CCCCC2C(=O)NC(C(C)C(=O)O)C(=O)NC(CC(=O)O)C(=O)NCC(=O)NC(CC(=O)O)C(=O)NCC(=O)NC(C(C)NC(=O)CNC(=O)[C@@H](N)Cc2ccccc2)C(=O)NC(C(C)C)C(=O)N2CCCC2C(=O)NC1C (stereo partly drawn) [Compound 28, C15-Amphomycin-9-Gly-Phe]
MIC ([6]; 24 h): 2 µg/mL

CCCCCCCCCCCCCC(=O)NCC(=O)NC(CC(=O)O)C(=O)NC1C(=O)N2CCCCC2C(=O)NC(C(C)C(=O)O)C(=O)NC(CC(=O)O)C(=O)NCC(=O)NC(CC(=O)O)C(=O)NCC(=O)NC(C(C)N)C(=O)NC(C(C)C)C(=O)N2CCCC2C(=O)NC1C (stereo not drawn) [Compound 105, C14-Gly-Amphomycin] (Myristoyl-GD[ξAbu(βξ-NH2)][Pip][ξAsp(βξ-Me)]DGDG[ξAbu(3ξ-NH2)]VP; lactam 3-C; configuration not given here)
MIC ([6]; 24 h): 0.5 µg/mL

CCCCCCCCCCCCCCC(=O)NC(CC(=O)O)C(=O)NC1C(=O)N2CCCCC2C(=O)NC(C(C)C(=O)O)C(=O)NC(CC(=O)O)C(=O)NCC(=O)NC(CC(=O)O)C(=O)NCC(=O)NC(C(C)NC(=O)Cc2ccc(N)cc2)C(=O)NC(C(C)C)C(=O)N2CCCC2C(=O)NC1C (stereo not drawn) [Compound 168, C15-Amphomycin-9-(p-Apa)] (Pentadecanoyl-D[ξAbu(βξ-NH2)][Pip][ξAsp(βξ-Me)]DGDG[X30]VP; lactam 2-C; configuration not given here)
MIC ([6]; 24 h): 32 to 64 µg/mL

Lys-Gly-Amphomycin-9-C13 [Compound 332]
MIC ([6]; S. aureus (MSSA), CAMHB supplemented with 0.625 mM calcium, 24 hours at about 37° C., a range = compound tested multiple times): >64 µg/mL

CCCCCCCCCCCCC(=O)Nc1ccc(C(=O)NC(CC(=O)O)C(=O)NC2C(=O)N3CCCCC3C(=O)NC(C(C)C(=O)O)C(=O)NC(CC(=O)O)C(=O)NCC(=O)NC(CC(=O)O)C(=O)NCC(=O)NC(C(C)N)C(=O)NC(C(C)C)C(=O)N3CCCC3C(=O)NC2C)cc1 (stereo not drawn) [Compound 285, C13-PABA-Amphomycin]
MIC ([6]; 24 h): 0.25 µg/mL

CCCCCCCCCCCCCCC(=O)NC(CC(=O)O)C(=O)NC1C(=O)N2CCCCC2C(=O)NC(C(C)C(=O)O)C(=O)NC(CC(=O)O)C(=O)NCC(=O)NC(CC(=O)O)C(=O)NCC(=O)NC(C(C)NC(=O)CCNC(=O)[C@@H](N)CCCCN)C(=O)NC(C(C)C)C(=O)N2CCCC2C(=O)NC1C (stereo partly drawn) [Compound 155, C15-Amphomycin-9-(β-Ala)-Lys]
MIC ([6]; 24 h): 8 µg/mL

CCCCCCCCCCCCCCC(=O)NC(CC(=O)O)C(=O)NC1C(=O)N2CCCCC2C(=O)NC(C(C)C(=O)O)C(=O)NC(CC(=O)O)C(=O)NCC(=O)NC(CC(=O)O)C(=O)NCC(=O)NC(C(C)NC(=O)[C@@H](N)[C@@H](C)O)C(=O)NC(C(C)C)C(=O)N2CCCC2C(=O)NC1C (stereo partly drawn) [Compound 44, C15-Amphomycin-9-Thr]
MIC ([6]; 24 h): 2 to 4 µg/mL

CCCCCCCCCCCCCCC(=O)NC(CC(=O)O)C(=O)NC1C(=O)N2CCCCC2C(=O)NC(C(C)C(=O)O)C(=O)NC(CC(=O)O)C(=O)NCC(=O)NC(CC(=O)O)C(=O)NCC(=O)NC(C(C)NC(=O)CSC(C)=O)C(=O)NC(C(C)C)C(=O)N2CCCC2C(=O)NC1C (stereo not drawn) [Compound 235, C15-Amphomycin-9-(S-Acetylthioglycolyl)] (Pentadecanoyl-D[ξAbu(βξ-NH2)][Pip][ξAsp(βξ-Me)]DGDG[X21]VP; lactam 2-C; configuration not given here)
MIC ([6]; 24 h): 2 µg/mL

C=CC(=O)NC(C)C1NC(=O)CNC(=O)C(CC(=O)O)NC(=O)CNC(=O)C(CC(=O)O)NC(=O)C(C(C)C(=O)O)NC(=O)C2CCCCN2C(=O)C(NC(=O)C(CC(=O)O)NC(=O)CCCCCCCCCCCCCC)C(C)NC(=O)C2CCCN2C(=O)C(C(C)C)NC1=O (stereo not drawn) [Compound 213, C15-Amphomycin-9-Acryl] (Pentadecanoyl-D[ξAbu(βξ-NH2)][Pip][ξAsp(βξ-Me)]DGDG[X39]VP; lactam 2-C; configuration not given here)
MIC ([6]; 24 h): 2 µg/mL

CCCCCCCCCCCCCCC(=O)NC(CC(=O)O)C(=O)NC1C(=O)N2CCCCC2C(=O)NC(C(C)C(=O)O)C(=O)NC(CC(=O)O)C(=O)NCC(=O)NC(CC(=O)O)C(=O)NCC(=O)NC(C(C)NC(=O)[C@@H](N)CCCNC(N)=O)C(=O)NC(C(C)C)C(=O)N2CCCC2C(=O)NC1C (stereo partly drawn) [Compound 165, C15-Amphomycin-9-Cit]
MIC ([6]; 24 h): 4 µg/mL
